According to patent US20170112859A1, “METHOD OF TREATMENT USING AN ASSOCIATION OF LOSARTAN AND ACETYLSALICYLIC ACID, AND KIT” (BIOLAB SANUS FARMACEUTICA LTDA, priority 2014, published 2017):
“Also recorded” adds a separate entry of the source.

Experiments:
[1] = system: prostaglandin synthesis (PGE2) in gastric mucosa; assay: prostaglandin-E2 concentration in antrum biopsies collected during endoscopy, pre- and post-treatment; format: in vivo, human; settings: 30 days
Procedure: (§1) One group (Arm A) received 30 days of daily doses of 50 mg of losartan potassium and 81 mg of acetylsalicylic acid. The second group (Arm B) received over the same 30 day period, daily doses of 50 mg of losartan potassium and doses of 81 mg of acetylsalicylic acid only every three days.
To obtain this proof, endoscopic tests were performed on each volunteer, always before starting treatment and also after treatment, when biopsies were collected.
From these samples, collected from both Arm A and Arm B of the treatment, the inhibition of prostaglandin was measured.

[2] = target: T1, platelet cyclooxygenase enzyme (Homo sapiens, UniProt P23219); assay: measurement of thromboxane B2 (TXB2) in stimulated platelet-rich plasma by immunoenzymatic technique; format: in vivo; settings: D15-D17
T1 construct: from tissue; host or cells: platelets of dosed healthy volunteers (ex vivo stimulation with arachidonic acid or ADP)
T1 sequence (P23219 24-599): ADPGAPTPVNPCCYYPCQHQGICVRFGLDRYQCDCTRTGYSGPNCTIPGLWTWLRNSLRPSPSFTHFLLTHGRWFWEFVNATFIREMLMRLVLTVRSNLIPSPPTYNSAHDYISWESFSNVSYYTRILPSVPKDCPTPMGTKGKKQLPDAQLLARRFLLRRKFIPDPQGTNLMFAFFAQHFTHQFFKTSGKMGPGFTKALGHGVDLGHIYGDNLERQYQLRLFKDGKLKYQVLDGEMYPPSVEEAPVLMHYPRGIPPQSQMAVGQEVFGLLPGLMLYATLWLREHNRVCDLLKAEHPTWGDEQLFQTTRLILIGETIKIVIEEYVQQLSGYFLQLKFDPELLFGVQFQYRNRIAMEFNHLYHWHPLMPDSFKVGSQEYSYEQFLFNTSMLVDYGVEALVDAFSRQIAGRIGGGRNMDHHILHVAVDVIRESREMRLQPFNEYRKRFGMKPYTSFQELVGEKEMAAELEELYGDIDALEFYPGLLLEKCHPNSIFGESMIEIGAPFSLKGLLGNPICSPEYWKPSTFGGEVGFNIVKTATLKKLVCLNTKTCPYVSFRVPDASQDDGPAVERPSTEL
Procedure: as §1
(§2) Control of bioavailability for acetylsalicylic acid in the analyzed individuals was performed through platelet aggregation tests, using arachidonic acid and adenosine diphosphate (ADP) as stimulants, and through the measuring of thromboxane by immunoenzymatic techniques.
Such control is based on tests to evaluate the competition between two compounds for binding to a specific antibody, namely, free thromboxane 2 (TXB 2) to be analyzed and present in the samples tested, and marked thromboxane 2 (TXB 2), attached to a molecule of acetylcholinesterase and with constant concentration (provided by the test kits).
(§3) The test results shown in FIGS. 1 to 6 consider four periods: D0, which is the pre-test time D15—the fifteenth day of testing, D16—the sixteenth day of testing and D17—the seventeenth day testing.

platelet aggregation = platelet aggregation tests with arachidonic acid or ADP as stimulants, volunteers' platelet-rich plasma; format: in vivo, human
Procedure: as §1, §2, §3

[3] = system: prostaglandin synthesis (PGE2) in gastric mucosa; settings: daily use, as described in the prior art; cited from earlier work
[4] = Arm A: 81 mg daily plus 50 mg losartan potassium daily
[5] = Arm B: 81 mg every three days plus 50 mg losartan potassium daily

SMILES: CC(=O)Oc1ccccc1C(=O)O [acetylsalicylic acid]
- prostaglandin (PGE2) levels post-treatment versus pre-treatment basal [1, 4]: significant decrease
- prostaglandin (PGE2) levels post-treatment versus pre-treatment basal [1, 5]: did not alter the basal dose; also recorded: remained unaltered
- inhibition of the platelet cyclooxygenase enzyme [2, 4]: satisfactory inhibition
- inhibition of the platelet cyclooxygenase enzyme [2, 5]: satisfactory inhibition
- level of platelet inhibition (platelet aggregation; Arm A (81 mg daily) compared with Arm B (81 mg every three days), both with 50 mg losartan potassium daily, 30 days, healthy volunteers, stimulants arachidonic acid 300 μg/ml or ADP 20 μM): almost the same level of platelet inhibition
- inhibitory effect of the platelet aggregation (platelet aggregation; acetylsalicylic acid administered every three days): sustained
- PGE2 levels [3]: drastically reduces
